pIC50, pKi: −log10 of the molar value.
Key:
GCN2 kinase = GCN2 kinase (Homo sapiens, UniProt Q9P2K8); experiment: GCN2 enzyme inhibition assay (Transcreener ADP2 fluorescence polarization); type: biochemical; settings: 280 μM ATP
Summary of the method: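 ADP formation read by Transcreener FP after a 1 h, 25 °C kinase reaction containing 280 μM ATP, 200 μM (RS)7 substrate and 4 nM GCN2, pH 7.5 Tris buffer. Compounds (0–8 μM final) were added 10 min before ATP. Percent inhibition gave IC50 and apparent Ki via tight-binding fit.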

[1] = target: intracellular GCN2 (phosphorylation of the GCN2 substrate eIF2α) (Homo sapiens, UniProt Q9P2K8); experiment: GCN2 cellular inhibition assay (AlphaScreen SureFire P-eIF2α Ser51, borrelidin-treated U2OS cells); type: cell-based; settings: biomarker assay, phosphorylated eIF2α Ser51 in borrelidin-treated U2OS cells
Chain of intracellular GCN2 (phosphorylation of the GCN2 substrate eIF2α) (Q9P2K8 whole entry): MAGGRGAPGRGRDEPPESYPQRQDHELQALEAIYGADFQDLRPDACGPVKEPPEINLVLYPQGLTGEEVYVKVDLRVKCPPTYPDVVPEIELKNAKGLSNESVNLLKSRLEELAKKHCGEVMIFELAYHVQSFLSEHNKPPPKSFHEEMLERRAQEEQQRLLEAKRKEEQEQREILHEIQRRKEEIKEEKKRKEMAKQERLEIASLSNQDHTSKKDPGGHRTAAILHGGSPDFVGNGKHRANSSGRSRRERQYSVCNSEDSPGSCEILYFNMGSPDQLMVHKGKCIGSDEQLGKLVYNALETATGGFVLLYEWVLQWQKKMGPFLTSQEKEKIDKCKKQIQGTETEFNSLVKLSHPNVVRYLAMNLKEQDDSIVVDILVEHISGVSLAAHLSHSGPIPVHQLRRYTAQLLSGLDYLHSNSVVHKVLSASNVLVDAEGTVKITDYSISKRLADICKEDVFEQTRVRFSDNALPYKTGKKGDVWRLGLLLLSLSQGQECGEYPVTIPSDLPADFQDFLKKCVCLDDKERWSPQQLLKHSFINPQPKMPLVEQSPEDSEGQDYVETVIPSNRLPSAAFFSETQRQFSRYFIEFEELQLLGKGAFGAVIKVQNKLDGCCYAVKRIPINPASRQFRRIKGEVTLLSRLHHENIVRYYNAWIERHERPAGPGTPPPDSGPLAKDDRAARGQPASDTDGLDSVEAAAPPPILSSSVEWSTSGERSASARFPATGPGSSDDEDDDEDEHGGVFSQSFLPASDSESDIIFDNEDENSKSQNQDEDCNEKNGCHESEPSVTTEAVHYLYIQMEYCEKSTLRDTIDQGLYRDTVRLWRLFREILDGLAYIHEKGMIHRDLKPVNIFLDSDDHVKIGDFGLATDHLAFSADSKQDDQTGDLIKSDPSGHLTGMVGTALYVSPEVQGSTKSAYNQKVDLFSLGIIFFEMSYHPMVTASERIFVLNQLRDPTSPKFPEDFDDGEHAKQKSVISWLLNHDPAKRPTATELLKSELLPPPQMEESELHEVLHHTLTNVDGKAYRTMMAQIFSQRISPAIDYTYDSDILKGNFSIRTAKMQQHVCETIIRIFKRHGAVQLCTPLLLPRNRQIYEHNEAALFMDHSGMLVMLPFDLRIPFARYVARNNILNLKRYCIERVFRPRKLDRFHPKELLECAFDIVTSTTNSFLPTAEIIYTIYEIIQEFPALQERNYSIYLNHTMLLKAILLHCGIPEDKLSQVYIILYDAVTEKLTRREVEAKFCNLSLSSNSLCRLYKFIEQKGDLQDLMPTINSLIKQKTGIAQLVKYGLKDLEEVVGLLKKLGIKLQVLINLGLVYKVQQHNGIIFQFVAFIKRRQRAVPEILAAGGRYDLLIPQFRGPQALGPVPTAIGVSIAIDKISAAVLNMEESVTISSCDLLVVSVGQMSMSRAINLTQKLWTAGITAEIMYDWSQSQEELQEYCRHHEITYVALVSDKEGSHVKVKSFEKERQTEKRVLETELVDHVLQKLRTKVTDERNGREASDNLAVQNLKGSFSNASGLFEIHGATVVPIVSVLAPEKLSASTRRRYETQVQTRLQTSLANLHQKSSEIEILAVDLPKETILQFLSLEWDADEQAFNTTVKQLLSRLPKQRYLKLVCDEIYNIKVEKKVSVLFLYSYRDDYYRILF
Summary of the method: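 Read-out: AlphaScreen SureFire phospho-eIF2α (Ser51) signal in U2OS lysates. Cells get 4-fold compound dilutions (top 40 μM final) plus 10 μM borrelidin, 1 h, 37 °C. Percent inhibition is relative to borrelidin-alone controls.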

[2] = compounds of Formula II, 4 nM GCN2 kinase
[3] = Enzyme activity for compounds of Formula IV, Ki(app), 25° C.

Chain of GCN2 kinase (Q9P2K8 whole entry): as above

| SMILES | pKi (GCN2 kinase; [2]) | pIC50 ([1]; compounds of Formula II) | pKi (GCN2 kinase; [3]) | pIC50 ([1]; compounds of Formula IV) |
| --- | --- | --- | --- | --- |
| CC1NCCN(c2cc(-c3cnc4ccc(C(F)(F)F)nn34)ncn2)C1c1cn[nH]c1 (stereo not drawn) [II-707, 3-(6-(3-Methyl-2-(1H-pyrazol-4-yl)piperazin-1-yl)pyrimidin-4-yl)-6-(trifluoromethyl)imidazo[1,2-b]pyridazine] | 6.00 to 8.00 | < 5.30 |  |  |
| CC(NS(C)(=O)=O)C1CN(c2cc(-c3cnc4ccc(C(F)F)nn34)ncn2)CCO1 (stereo not drawn) [II-177, N-(1-(4-(6-(6-(Difluoromethyl)imidazo[1,2-b]pyridazin-3-yl)pyrimidin-4-yl)morpholin-2-yl)ethyl)methanesulfonamide] | > 8.00 | > 6.30 |  |  |
| CS(=O)(=O)N1CCC2(CCN(c3cc(-c4cnc5ccc(C(F)F)nn45)ncn3)C2)CC1 [II-54, 2-(6-(6-(Difluoromethyl)imidazo[1,2-b]pyridazin-3-yl)pyrimidin-4-yl)-8-(methylsulfonyl)-2,8-diazaspiro[4.5]decane] | 6.00 to 8.00 | 5.30 to 6.30 |  |  |
| CC(=O)N1CCN(c2cc(-c3cnc4ccc(C)nn34)ccn2)CC1 [II-193, 1-(4-(4-(6-Methylimidazo[1,2-b]pyridazin-3-yl)pyridin-2-yl)piperazin-1-yl)ethanone] | 6.00 to 8.00 | < 5.30 |  |  |
| CC1CN(c2ccnc(-c3cnc4cnc(Br)cn34)n2)C(C)C(c2c[nH]cn2)N1 (single isomer, unassigned) [IV-377, 3-(4-(3-(1H-Imidazol-4-yl)-2,5-dimethylpiperazin-1-yl)pyrimidin-2-yl)-6-bromoimidazo[1,2-a]pyrazine] |  |  | 6.00 to 7.00 | 5.30 to 6.30 |
| C[C@H]1[C@@H](CNS(C)(=O)=O)OC(C)(C)CN1c1cc(-c2cnc3ccc(C(F)F)nn23)ncn1 (single isomer, unassigned) [II-490] | > 8.00 | > 6.30 |  |  |
| Brc1cn2c(-c3nccc(N4CCCC(c5cn[nH]c5)C4)n3)cnc2cn1 (single isomer, unassigned) [IV-361, 3-(4-(3-(1H-Pyrazol-4-yl)piperidin-1-yl)pyrimidin-2-yl)-6-bromoimidazo[1,2-a]pyrazine] |  |  | > 8.00 | > 6.30 |
| CC1CN(c2ccnc(-c3cnc4ccc(C(F)F)nn34)c2)CC(CNS(C)(=O)=O)O1 (stereo not drawn) [II-94, N-((4-(2-(6-(Difluoromethyl)imidazo[1,2-b]pyridazin-3-yl)pyridin-4-yl)-6-methylmorpholin-2-yl)methyl)methanesulfonamide] | > 8.00 | > 6.30 |  |  |
| CS(=O)(=O)N1CC2(CCCN(c3cncc(-c4cnc5ccc(C(F)F)nn45)c3)C2)C1 [II-101, 6-(Difluoromethyl)-3-(5-(2-(methylsulfonyl)-2,6-diazaspiro[3.5]nonan-6-yl)pyridin-3-yl)imidazo[1,2-b]pyridazine] | > 8.00 | 5.30 to 6.30 |  |  |
| CC1NC(c2cn[nH]c2)C(C)N(c2ccnc(-c3cnc4cnc(C(F)(F)F)cn34)n2)C1C (stereo not drawn) [IV-323, 6-(Trifluoromethyl)-3-(4-(2,3,6-trimethyl-5-(1H-pyrazol-4-yl)piperazin-1-yl)pyrimidin-2-yl)imidazo[1,2-a]pyrazine] |  |  | > 8.00 | 5.30 to 6.30 |
| CC1C(c2cn[nH]c2)NCCN1c1ccnc(-c2cnc3cnc(C(F)(F)F)cn23)n1 (single isomer, unassigned) [IV-358, 3-(4-(2-Methyl-3-(1H-pyrazol-4-yl)piperazin-1-yl)pyrimidin-2-yl)-6-(trifluoromethyl)imidazo[1,2-a]pyrazine] |  |  | > 8.00 | 5.30 to 6.30 |
| Cn1nc(C2CCCN(c3ccnc(-c4cnc5cnc(C(F)F)cn45)n3)C2)cc1O (stereo not drawn) [IV-113, 3-(1-(2-(6-(Difluoromethyl)imidazo[1,2-a]pyrazin-3-yl)pyrimidin-4-yl)piperidin-3-yl)-1-methyl-1H-pyrazol-5-ol] |  |  | 6.00 to 7.00 | < 5.30 |
| NC(=O)NCC1CCCN(c2ccnc(-c3cnc4cnc(C(F)F)cn34)n2)C1 (stereo not drawn) [IV-41, 1-((1-(2-(6-(Difluoromethyl)imidazo[1,2-a]pyrazin-3-yl)pyrimidin-4-yl)piperidin-3-yl)methyl)urea] |  |  | 6.00 to 7.00 | < 5.30 |
| CC(C)(NS(C)(=O)=O)C1CCCN(c2cc(-c3cnc4ccc(C(F)F)nn34)ccn2)C1 (stereo not drawn) [II-114, N-(2-(1-(4-(6-(Difluoromethyl)imidazo[1,2-b]pyridazin-3-yl)pyridin-2-yl)piperidin-3-yl)propan-2-yl)methanesulfonamide] | 6.00 to 8.00 | < 5.30 |  |  |
| CC1CN(c2ccnc(-c3cnc4cnc(C(F)(F)F)cn34)n2)CC(c2cn[nH]c2C(F)(F)F)N1 (single isomer, unassigned) [IV-474, 3-(4-(3-Methyl-5-(5-(trifluoromethyl)-1H-pyrazol-4-yl)piperazin-1-yl)pyrimidin-2-yl)-6-(trifluoromethyl)imidazo[1,2-a]pyrazine] |  |  | > 8.00 | > 6.30 |
| OC1CCCN(c2ccnc(-c3cnc4cnc(C(F)F)cn34)n2)C1 (stereo not drawn) [IV-120, 1-(2-(6-(Difluoromethyl)imidazo[1,2-a]pyrazin-3-yl)pyrimidin-4-yl)piperidin-3-ol] |  |  | 6.00 to 7.00 | < 5.30 |
| NC(=O)[C@H]1CCCN(c2ccnc(-c3cnc4cnc(C(F)(F)F)cn34)n2)C1 [IV-60, (S)-1-(2-(6-(Trifluoromethyl)imidazo[1,2-a]pyrazin-3-yl)pyrimidin-4-yl)piperidine-3-carboxamide] |  |  | > 8.00 | 5.30 to 6.30 |
| Cc1ncc(-c2cnc3ccc(C(F)F)nn23)cc1N1CCCC(CNS(C)(=O)=O)C1 (stereo not drawn) [II-49, N-((1-(5-(6-(Difluoromethyl)imidazo[1,2-b]pyridazin-3-yl)-2-methylpyridin-3-yl)piperidin-3-yl)methyl)methanesulfonamide] | 6.00 to 8.00 | 5.30 to 6.30 |  |  |
| [2H]C([2H])([2H])N1CCN(c2cc(-c3cnc4ccc(C(F)F)nn34)ncn2)C(C)C1CNS(C)(=O)=O (stereo not drawn) [II-523, N-((4-(6-(6-(Difluoromethyl)imidazo[1,2-b]pyridazin-3-yl)pyrimidin-4-yl)-3-methyl-1-(methyl-d3)piperazin-2-yl)methyl)methanesulfonamide] | > 8.00 | > 6.30 |  |  |
| O=S1(=O)CCN(c2cc(-c3cnc4ccc(C(F)F)nn34)ncn2)CC1 [II-295, 4-(6-(6-(Difluoromethyl)imidazo[1,2-b]pyridazin-3-yl)pyrimidin-4-yl)thiomorpholine 1,1-dioxide] | < 6.00 | < 5.30 |  |  |
| O=C1OCC2CN(c3ccnc(-c4cnc5cnc(C(F)F)cn45)n3)CCN12 (stereo not drawn) [IV-100, 7-(2-(6-(Difluoromethyl)imidazo[1,2-a]pyrazin-3-yl)pyrimidin-4-yl)hexahydro-3H-oxazolo[3,4-a]pyrazin-3-one] |  |  | 6.00 to 7.00 | < 5.30 |
| CS(=O)(=O)NCC1CN(c2ccnc(-c3cnc4ccc(C(F)F)nn34)c2)CCC1(F)F (stereo not drawn) [II-103, N-((1-(2-(6-(Difluoromethyl)imidazo[1,2-b]pyridazin-3-yl)pyridin-4-yl)-4,4-difluoropiperidin-3-yl)methyl)methanesulfonamide] | > 8.00 | > 6.30 |  |  |
| CC1C(C(N)=O)CCN1c1ccnc(-c2cnc3cnc(C(F)(F)F)cn23)n1 (single isomer, unassigned) [IV-614, 2-Methyl-1-(2-(6-(trifluoromethyl)imidazo[1,2-a]pyrazin-3-yl)pyrimidin-4-yl)pyrrolidine-3-carboxamide] |  |  | 6.00 to 7.00 | < 5.30 |
| CS(=O)(=O)CCN1CCCC(c2cc(-c3cnc4ccc(C(F)F)nn34)ncn2)C1 (stereo not drawn) [II-48, 6-(Difluoromethyl)-3-(6-(1-(2-(methylsulfonyl)ethyl)piperidin-3-yl)pyrimidin-4-yl)imidazo[1,2-b]pyridazine] | 6.00 to 8.00 | < 5.30 |  |  |
| CC1CC(CNS(C)(=O)=O)CN(c2cc(-c3cnc4ccc(C(F)F)nn34)ncn2)C1C (stereo not drawn) [II-544, N-((1-(6-(6-(Difluoromethyl)imidazo[1,2-b]pyridazin-3-yl)pyrimidin-4-yl)-5,6-dimethylpiperidin-3-yl)methyl)methanesulfonamide] | > 8.00 | > 6.30 |  |  |
| CP(C)(=O)C1CC(c2cn[nH]c2)CN(c2ccnc(-c3cnc4cnc(C(F)(F)F)cn34)n2)C1 (single isomer, unassigned) [IV-632, (5-(1H-Pyrazol-4-yl)-1-(2-(6-(trifluoromethyl)imidazo[1,2-a]pyrazin-3-yl)pyrimidin-4-yl)piperidin-3-yl)dimethylphosphine oxide] |  |  | 7.00 to 8.00 | < 5.30 |
| CN(CC1CCCN(c2cc(-c3cnc4ccc(C(F)F)nn34)ccn2)C1)S(C)(=O)=O (stereo not drawn) [II-109, N-((1-(4-(6-(Difluoromethyl)imidazo[1,2-b]pyridazin-3-yl)pyridin-2-yl)piperidin-3-yl)methyl)-N-methylmethanesulfonamide] | 6.00 to 8.00 | 5.30 to 6.30 |  |  |
| CC(=O)N1CC2(C1)CN(c1cc(-c3cnc4ccc(C(F)F)nn34)cc(N3CCCC(CNS(C)(=O)=O)C3)n1)C2 (stereo not drawn) [II-55, N-((1-(6-(6-Acetyl-2,6-diazaspiro[3.3]heptan-2-yl)-4-(6-(difluoromethyl)imidazo[1,2-b]pyridazin-3-yl)pyridin-2-yl)piperidin-3-yl)methyl)methanesulfonamide] | > 8.00 | > 6.30 |  |  |
| FC(F)c1ccc2ncc(-c3cc(N4CCc5ccccc54)ncn3)n2n1 [II-20, 6-(Difluoromethyl)-3-(6-(indolin-1-yl)pyrimidin-4-yl)imidazo[1,2-b]pyridazine] | 6.00 to 8.00 | < 5.30 |  |  |
| FC(F)c1cn2c(-c3nccc(N4CCCC5CC54)n3)cnc2cn1 (stereo not drawn) [IV-135, 3-(4-(2-Azabicyclo[4.1.0]heptan-2-yl)pyrimidin-2-yl)-6-(difluoromethyl)imidazo[1,2-a]pyrazine] |  |  | 6.00 to 7.00 | < 5.30 |

Reference: patent US10988477B2 (Merck Patent GmbH, priority 2018, dated 2021)
